Measurements: US20050014742A1, “Use of inhibitors of the y2 receptor of neuropeptide y in the treatment of alcoholism” (priority 2001, published 2005)
“Also recorded” adds a separate entry of the source.

Legend:
Format in all cases: in vivo, rat
[1] = tested on: Male Wistar rats; experiment: Operant ethanol self-administration after intracerebroventricular injection
Method: Male Wistar rats (Charles River, Hamburg, Germany), appr. 225 g at start of experiment were used for the experiments from which data are presented. For a replication experiment (see Results), Wistar males of the same age but delivered by Mollegard, Ry, Denmark, were used. Subjects were housed on a reversed light-cycle (lights off 11 am, on 11 pm). Following training for operant responding (see below), surgery was carried out for unilateral cannula implantation. Rats were anaesthetized with ketaminelxylazine (80 mg/kg and 15 mg/kg) and placed in a stereotaxic apparatus (Kopf). Stainless steel guide cannulas (23 gauge, PlasticOne, Roanoke, Va.) aimed at the lateral ventricle were implanted and secured to the skull with stainless screws and dental cement. Final injection coordinates were: A=−0.8, L=±1.4, V=−4.3 from Bregma (15). Animals were allowed to recover for one week, during which time they were only repeatedly handled, in order to reduce the stress of subsequent intracerebroventricular injections. They were then reintroduced to the operant task (see below), and allowed to re-establish their rates of operant responding for two weeks. Finally, the actual Latin-square design was initiated, and carried out over the course of three weeks.
BIIE0246 ([…]; kind gift of Boehringer Ingelheim) or saline was injected i.c.v. via an injection cannula (28-gauge) connected to a 10 μl Hamilton syringe with a low-volume plastic tubing. […] The drug was dissolved in 0.9% NaCl and injected 45 min prior to onset of sessions, in a volume of 10 μl over a period of 2 min interval. The injection cannula was left in place for an additional minute to prevent back flow.
Following completion of training, rats were subjected to surgery, allowed to recover for one week and to stabilize their baseline responding for two weeks, after which a Latin Square design was initiated and carried out over three weeks. During each of these weeks, rats were run Monday-Friday, and drug administration was on Friday. […] In order to retain a balanced design, the analysis presented here includes only those subjects, which completed all treatments. An analysis based on all subjects, with missing values for failed injections, produced a virtually identical result.

[2] = tested on: Wistar rats; experiment: Exploratory locomotor activity after intracerebroventricular administration; conditions: for Horizontal locomotor activity / Vertical locomotor activity (rearings): 30 min test period, n=6, mean ± SEM
[3] = tested on: rats; experiment: Preliminary dose-finding experiments (sedation); conditions: dose of 3 nmol i.c.v.
Method: […] […] The drug was dissolved in 0.9% NaCl and injected 45 min prior to onset of sessions, in a volume of 10 μl over a period of 2 min interval. The injection cannula was left in place for an additional minute to prevent back flow.

[4] = Wistar rats from Mollegard, separate experiment (data not shown)

Horizontal locomotor activity ([2]; 0.3 nmol i.c.v.): 2873.8 ± 572.0
Vertical locomotor activity (rearings) ([2]; 0.3 nmol i.c.v.): 756.8 ± 122.9
Horizontal locomotor activity ([2]; 1.0 nmol i.c.v.): 2630.2 ± 480.0
Vertical locomotor activity (rearings) ([2]; 1.0 nmol i.c.v.): 503.3 ± 113.4
SMILES: N=C(N)NCCC[C@H](NC(=O)CC1(CC(=O)N2CCN(C3c4ccccc4NC(=O)c4ccccc43)CC2)CCCC1)C(=O)NCCn1c(=O)n(-c2ccccc2)n(-c2ccccc2)c1=O (stereo partly drawn) [BIIE0246, (S)—N^2-//1-/2-/4-/(R,S)-5,11-Dihydro-6(6H)-oxodibenz/b,elazepin-11-yl/-1-piperazinyl/-2-oxoethyl/-cyclopentyl/acetyl/-N-/2-/1,2-dihydro-3,5(4H)-dioxo-1,2-diphenyl-3H-1,2,4-triazol-4-yl/-ethyl/-argininamide]
Ethanol-reinforced responses over time (cumulative, 5 min intervals) ([1]; 1.0 nmol i.c.v., 30 min session, vs saline, Tukey HSD p<0.001): present during min 10-30; also recorded: significantly less during the last 20 but not during the initial 10 min
Reduction of total responding for ethanol ([1]; 1.0 nmol i.c.v., 45 min before 30 min session, Wistar rats (Charles River), p<0.05 vs saline and vs 0.3 nmol): ~40%
Responding for ethanol ([1]; 1.0 nmol i.c.v., n=13, p=0.013 (FIG. 1A)): significantly reduced
Effect on saccharin solution, replication experiment [1, 4]: no effect
Suppression of responding for ethanol, replication experiment [1, 4]: 40%
Total responding for ethanol (overall treatment effect) ([1]; i.c.v., 0, 0.3 and 1.0 nmol, one way ANOVA, n=13, p=0.013): significantly reduced
Responding for saccharin ([1]; i.c.v., 0.3 and 1.0 nmol, p=0.25, Charles River Wistar rats): unaffected
Effect of treatment on horizontal and vertical locomotor activity ([2]; i.c.v., 0.3 and 1.0 nmol, n=6, p=0.74 horizontal, p=0.17 vertical): Neither horisontal (n=6; F[2,15]=0.3; p=0.74) nor vertical activity (F[2,15]=2.0; p=0.17) was affected
Sedative effect [3]: marked sedative effects
